What was measured:
Stat5 = assay: In vitro Stat5 DNA-binding activity assay, EMSA with MGFe probe; parameters: species or system mouse; conditions: pre-incubated 30 min before MGFe probe
Protocol: FIGS. 1A-1E. Inhibition of in vitro Stat3 DNA-binding activity by a platinum complex. Nuclear extracts or cell lysates containing activated Stat1, Stat3 and Stat5, or E2F1 prepared from NIH3T3/hEGFR that are stimulated with EGF or Sf-9 insect cells that are infected with baculovirus expressing Stat1, Stat3, Stat5, or E2F1, respectively, were treated with or without the indicated concentrations of platinum complex, PLATINUM-401 or Cisplatin, for 30 min at room temperature prior to incubation with radiolabeled oligonucleotide probes, and subjected to EMSA analysis. (FIG. 1A) (i) Stat1 and Stat3 binding activities to hSIE probe, (ii) Stat1 and Stat5 binding activities to MGFe probe, and (iii) plot of % oligonucleotide probe-STAT:STAT complexes versus concentration of PLATINUM-401. […] Positions of STAT: STAT-DNA complexes in gel are labeled. In (A) to (C), the control lanes represent DMSO (vehicle)-treatment.
Nuclear extract preparation and gel shift assays—Nuclear extract preparation from NIH3T3 stimulated by rhIL-6, NIH3T3/hEGFR stimulated by rhEGF, v-Src-transformed fibroblasts (NIH3T3/v-Src) or tumor cell lines and electrophoretic mobility shift assay were carried out as previously described (Turkson et al., 1998; Garcia et al., 1997; Yu et al., 1995). […]

[1] = tested on: hSIE oligonucleotide probe; assay: Pre-treatment of hSIE oligonucleotide with compound, then Stat3 binding by EMSA; conditions: oligonucleotide treated 30 min, then radiolabeled
Protocol: To investigate the possibility that PLATINUM-401 might alter the integrity of the hSIE oligonucleotide probe that is used in the DNA-binding activity studies and thereby inhibit Stat3 binding, the oligonucleotide was first treated with PLATINUM-401 for 30 min. Pre-treated oligonucleotide was then radiolabeled and tested for its ability to bind to activated Stat3 in vitro. […] While PLATINUM-401 was in direct contact with the oligonucleotide probe during the pre-treatment stage and prior to radiolabeling of the probe, it is unlikely to have been retained with the oligonucleotide probe following purification of the probe and therefore would not have come into contact with Stat3 protein at the time of the in vitro DNA-binding assay.

inactive Stat5 monomer = assay: Inactive STAT monomer added to activated Stat3 before EMSA (titration of compound); type: binding
E2F1 = target: T1, E2F1 (Homo sapiens, UniProt Q01094); assay: Non-STAT protein added to activated Stat3 before EMSA (titration of compound); type: binding
T1 construct: made in house; host or cells: Sf-9 insect cells infected with baculovirus

MDA-MB-453 = assay: Ki67 proliferation index by immunohistochemistry; type: cell-based, human; conditions: no persistent Stat3 activity
Protocol: FIGS. 5A and 5B. Evaluation for effects of PLATINUM-401 on cellular constitutive Stat3 activation and cell proliferation. Normal or malignant cells were treated with or without PLATINUM-401 and nuclear extracts were prepared for Stat3 DNA-binding activity assay with hSIE probe, or cells were processed for nuclear Ki67 immunohistochemistry. (FIG. 5A) EMSA analysis of Stat3 DNA-binding activity; (FIG. 5B) Graphical representations of quantified nuclear staining of Ki-67 proliferation index. Stat3:Stat3-DNA complexes in gels are labeled. The Ki-67 proliferation indexes were calculated as the percent positive tumor cells relative to the total number of cells. […]
Immunohistochemistry—The indirect peroxidase-antiperoxidase test was performed on cytospins prepared from cell lines (control and treated). […] The presence of Ki-67 nuclear staining was calculated as percent positive tumor cells in relation to the total number of cells.
The inventors further examined the biological effects of PLATINUM-401 and determined whether any changes might correlate with the inhibition of constitutively-active Stat3. […]
Changes in cell proliferation induced by treatment with PLATINUM-401 were assayed in terms of Ki67 proliferation index by immunohistochemistry. The presence of Ki-67 nuclear staining was calculated as the percent positive tumor cells in relation to the total number of cells.

T1 sequence (Q01094 whole entry, species assumed): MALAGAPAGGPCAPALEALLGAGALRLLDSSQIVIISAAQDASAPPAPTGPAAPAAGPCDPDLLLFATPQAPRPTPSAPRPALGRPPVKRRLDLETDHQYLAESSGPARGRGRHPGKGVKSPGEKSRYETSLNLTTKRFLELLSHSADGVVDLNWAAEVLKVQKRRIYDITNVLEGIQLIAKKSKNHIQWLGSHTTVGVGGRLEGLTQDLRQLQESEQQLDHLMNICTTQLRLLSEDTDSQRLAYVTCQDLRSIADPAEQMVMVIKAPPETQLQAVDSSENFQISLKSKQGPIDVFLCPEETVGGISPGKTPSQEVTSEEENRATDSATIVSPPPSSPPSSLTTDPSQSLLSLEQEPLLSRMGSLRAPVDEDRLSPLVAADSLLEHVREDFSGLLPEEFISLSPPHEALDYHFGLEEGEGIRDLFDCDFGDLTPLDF

With `CC(O)CN1CCN(CC(C)O)CC1` (centres unmarked) [PLATINUM-401] the “effect on DNA-binding activity of Stat5:Stat5 dimer” value (Stat5) was “does not significantly affect”, the “effect of pre-treatment of hSIE oligonucleotide on its ability to bind activated Stat3” value [1] was “no observable effect” and the “influence of inactive Stat5 monomer on compound's effect on Stat3 DNA-binding activity” value (inactive Stat5 monomer) was “failed to significantly influence”. For the same molecule, the “influence of E2F1 protein on compound's effect on Stat3 DNA-binding activity” value (E2F1) was “failed to significantly influence” and the “proliferation (Ki67 index)” value (MDA-MB-453) was “lack of effect”.
